pIC50: −log10 of the molar value. Where a name gives a salt, the structure may show the parent alone. Read-outs that look alike come from different tables or passages of the source.
Legend:
Type in all cases: biochemical
[1] = biological target: human PDE4D3 (Homo sapiens (Human), UniProt Q08499); assay: PDE4D3 Scintillation Proximity Assay (SPA), inhibition of enzyme activity; conditions: read-out: Human PDE4D FL
Procedure: (§1) The PDE4A, PDE4B, PDE4C and PDE4D binding affinity for the compounds of the present invention was determined utilizing the following biological assay(s):
A portion of the human PDE4D3 coding sequence (amino acids 50 to 672 from the sequence with accession number Q08499-2) was cloned into the baculovirus expression vector pFastBac (Invitrogen) engineered to include a C-terminal His6 affinity tag to aid in purification as described in Seeger, T. F. et al., Brain Research 985 (2003) 113-126. The recombinant Bacmid was isolated and used to transfect insect cells to generate a viral stock. To generate cell paste for purification, insect cells were infected and cells were harvested 72 hours after infection. Insect cell paste was lysed and after centrifugation, the supernatant was chromatographed on Ni-NTA agarose (Qiagen) as described in Seeger, T. F. et al., Brain Research 985 (2003) 113-126. Ni-NTA agarose eluting fractions containing PDE4 were pooled, diluted with Q Buffer A (50 mM Tris HCl pH 8, 4% glycerol, 100 mM NaCl, 1 mM TCEP, Protease inhibitors EDTA-free (Roche)) to reduce NaCl to ˜200 mM, and loaded on a Q Sepharose (GE Healthcare) column. After washing with Q buffer A to baseline, PDE4D was eluted with a gradient from 10% to 60% of Buffer B (50 mM Tris HCl pH 8, 1 M NaCl, 4% glycerol, 1 mM TCEP). PDE4D fractions were analyzed by SDS-PAGE Coomassie blue staining, pooled based on purity, frozen and stored at −80° C.
(§2) The PDE4A3, PDE4B1, PDE4C1 and PDE4D3 assays use the Scintillation Proximity Assay (SPA) technology to measure the inhibition of human recombinant PDE4A1, PDE4B3, PDE4C1, and PDE4D3 enzyme activity by compounds in vitro. The PDE4A1, PDE4B3, PDE4C1, and PDE4D3 assays are run in parallel using identical parameters, except for the concentration of enzyme ([…]). The assays are performed in a 384-well format with 50 uL assay buffer (50 mM TRIS pH7.5; 1.3 mM MgCl2; 0.01% Brij) containing enough PDE4A3, PDE4B1, PDE4C1, and PDE4D to convert ˜20% of substrate (1 μM cAMP consisting of 20 nM 3H-cAMP+[…] cold cAMP) and a range of inhibitors. Reactions are incubated for 30 min at 25° C. The addition of 20 uL of 8 mg/ml yitrium silicate SPA beads (Perkin Elmer) stops the reaction. The plates are sealed (TopSeal, Perkin Elmer) and the beads are allowed to settle for 8 hrs, after which they are read on the Trilux Microbeta overnight.

[2] = biological target: Human PDE4B1 (Homo sapiens (Human), UniProt Q07343, S133E/S654A/S659A/S661A); assay: PDE4B1 Scintillation Proximity Assay (SPA), inhibition of enzyme activity; conditions: read-out: Human PDE4B FL
Sequence of Human PDE4B1 (Q07343 122-736 S133E/S654A/S659A/S661A): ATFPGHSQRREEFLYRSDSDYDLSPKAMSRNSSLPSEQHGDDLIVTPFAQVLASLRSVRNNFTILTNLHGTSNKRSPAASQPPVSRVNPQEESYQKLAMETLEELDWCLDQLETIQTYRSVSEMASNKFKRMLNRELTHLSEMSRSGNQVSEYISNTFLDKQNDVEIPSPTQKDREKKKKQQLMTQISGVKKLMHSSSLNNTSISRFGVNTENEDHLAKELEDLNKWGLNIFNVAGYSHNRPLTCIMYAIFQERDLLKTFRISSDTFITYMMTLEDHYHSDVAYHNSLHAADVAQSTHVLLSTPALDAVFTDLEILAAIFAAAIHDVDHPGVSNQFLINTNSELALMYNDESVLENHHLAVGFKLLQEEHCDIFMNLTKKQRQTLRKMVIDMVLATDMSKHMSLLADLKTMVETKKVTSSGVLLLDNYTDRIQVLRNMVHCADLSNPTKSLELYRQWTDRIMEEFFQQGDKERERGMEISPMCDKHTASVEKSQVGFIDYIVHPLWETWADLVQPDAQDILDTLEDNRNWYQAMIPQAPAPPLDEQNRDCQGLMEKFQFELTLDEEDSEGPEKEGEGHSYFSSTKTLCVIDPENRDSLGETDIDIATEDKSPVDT
Procedure: as §1
The recombinant Bacmid was isolated and used to transfect insect cells to generate a viral stock. To generate cell paste for purification, insect cells were infected with the virus stock and cells were harvested 72 hours after infection as described in Seeger, T. F. et al., Brain Research 985 (2003) 113-126. Insect cell paste was lysed and after centrifugation, the supernatant was chromatographed on Ni-NTA agarose (Qiagen) as described in Seeger, T. F. et al., Brain Research 985 (2003) 113-126. Ni-NTA agarose eluting fractions containing PDE4 were pooled, diluted with Q buffer A (20 mM Tris HCl pH 8, 5% glycerol, 1 mM TCEP) to reduce NaCl to ˜100 mM and loaded on a Source 15Q (GE Healthcare) column. After washing with Q buffer A/10% buffer B to baseline, PDE4D was eluted with a gradient from 10% to 60% of Buffer B (20 mM Tris HCl pH 8, 1 M NaCl, 5% glycerol, 1 mM TCEP). PDE4D fractions were analyzed by SDS-PAGE Coomassie blue staining, pooled based on purity, frozen and stored at −80° C.
as §2

[3] = biological target: Human PDE4A3 (Homo sapiens (Human), UniProt P27815); assay: PDE4A3 Scintillation Proximity Assay (SPA), inhibition of enzyme activity; conditions: Table 10, geometric mean of 2-9 determinations unless otherwise indicated, read-out: Human PDE4A FL
Sequence of Human PDE4A3 (P27815 other isoform, or with tags, fused parts or gaps): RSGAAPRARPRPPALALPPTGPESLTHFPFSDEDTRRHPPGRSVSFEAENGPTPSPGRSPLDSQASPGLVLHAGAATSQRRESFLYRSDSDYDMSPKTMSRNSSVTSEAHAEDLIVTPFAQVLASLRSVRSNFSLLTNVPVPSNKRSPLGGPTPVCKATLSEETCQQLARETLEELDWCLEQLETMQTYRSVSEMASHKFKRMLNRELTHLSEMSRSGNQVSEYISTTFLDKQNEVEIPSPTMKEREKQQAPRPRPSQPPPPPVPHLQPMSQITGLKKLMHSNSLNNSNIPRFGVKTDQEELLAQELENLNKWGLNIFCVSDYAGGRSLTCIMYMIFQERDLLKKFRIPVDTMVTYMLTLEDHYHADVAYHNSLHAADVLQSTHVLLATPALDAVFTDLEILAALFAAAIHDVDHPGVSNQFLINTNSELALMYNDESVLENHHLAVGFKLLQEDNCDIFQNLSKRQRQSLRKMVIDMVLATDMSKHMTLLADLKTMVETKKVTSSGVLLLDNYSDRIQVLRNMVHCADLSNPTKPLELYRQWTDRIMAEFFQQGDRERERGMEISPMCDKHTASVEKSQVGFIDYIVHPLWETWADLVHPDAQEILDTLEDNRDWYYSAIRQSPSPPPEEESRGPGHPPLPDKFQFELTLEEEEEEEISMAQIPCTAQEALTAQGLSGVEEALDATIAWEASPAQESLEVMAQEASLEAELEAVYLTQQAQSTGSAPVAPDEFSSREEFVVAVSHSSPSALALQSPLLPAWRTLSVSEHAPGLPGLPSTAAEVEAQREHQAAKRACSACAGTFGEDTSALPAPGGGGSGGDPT
Procedure: as §1
The recombinant Bacmid was isolated and used to transfect insect cells to generate a viral stock. To generate cell paste for purification, insect cells were infected with the virus stock and cells were harvested 72 hours after infection. Insect cell paste was lysed and after centrifugation, the supernatant was batch bound to Ni-NTA agarose (GE Healthcare) and eluted with 250 mM imidazole. This eluate was diluted with FLAG buffer (50 mM Tris HCL pH 7.5, 100 mM NaCl, 5% Glycerol, 1 mM TCEP with protease inhibitors) and batch bound to ant-FLAG M2 agarose (Sigma) overnight at 4° C. The agarose was packed into a column, washed with buffer and eluted with buffer containing elute using 250 ug/ml Flag-peptide. Fractions were analyzed using SDS-PAGE Coomassie blue staining and pooled based on purity. Pooled fractions were chromatographed on a S200 120 ml column (GE Healthcare) in 50 mM Tris HCL pH 7.5, 150 mM NaCl, 10% Glycerol, 2 mM TCEP with protease inhibitors. PDE4A3 fractions were analyzed by SDS-PAGE Coomassie blue staining, pooled based on purity, dialyzed against 50 mM Tris HCL pH 7.5, 100 mM NaCl, 20% Glycerol, 2 mM TCEP, frozen and stored at −80° C.
as §2

[4] = Table 9, geometric mean of 2-9 determinations unless otherwise indicated
[5] = Table 10, geometric mean of 2-9 determinations unless otherwise indicated

Sequence of human PDE4D3 (Q08499 186-808): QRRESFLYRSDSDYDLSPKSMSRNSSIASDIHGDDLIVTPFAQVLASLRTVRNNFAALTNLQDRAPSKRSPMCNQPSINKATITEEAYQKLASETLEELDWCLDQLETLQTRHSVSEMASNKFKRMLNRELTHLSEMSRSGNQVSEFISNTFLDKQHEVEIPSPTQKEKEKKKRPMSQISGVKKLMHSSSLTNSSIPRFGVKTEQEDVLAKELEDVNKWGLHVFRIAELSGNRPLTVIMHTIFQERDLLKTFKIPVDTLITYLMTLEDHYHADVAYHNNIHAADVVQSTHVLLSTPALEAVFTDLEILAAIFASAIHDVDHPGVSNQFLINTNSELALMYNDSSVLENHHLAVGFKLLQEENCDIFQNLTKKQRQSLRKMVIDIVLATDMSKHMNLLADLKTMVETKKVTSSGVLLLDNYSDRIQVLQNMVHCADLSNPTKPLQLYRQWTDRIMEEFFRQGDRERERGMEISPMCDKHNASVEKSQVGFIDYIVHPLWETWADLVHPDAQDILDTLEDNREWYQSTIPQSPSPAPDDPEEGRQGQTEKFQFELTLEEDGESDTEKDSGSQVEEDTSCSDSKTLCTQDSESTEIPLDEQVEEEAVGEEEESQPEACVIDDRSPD

| Structure (SMILES) | pIC50 [1, 4] | pIC50 [2, 4] | pIC50 [3] | pIC50 [1, 5] | pIC50 [2, 5] |
| --- | --- | --- | --- | --- | --- |
| Cc1cc(Cl)ccc1-c1c2n(c3cccnc13)CCN(C1CC1)C2=O [Example 56, 10-(4-Chloro-2-methylphenyl)-8-cyclopropyl-7,8-dihydropyrido[2′,3′:4,5]pyrrolo[1,2-a]pyrazin-9(6H)-one] | 6.60 | 8.26 |  |  |  |
| Cn1nc(-c2c3n(c4cccnc24)CCN(C2CC2)C3=O)nc1C(F)F [Example 90, 8-Cyclopropyl-10-(5-(difluoromethyl)-1-methyl-1H-1,2,4-triazol-3-yl)-7,8-dihydropyrido[2′,3′:4,5]pyrrolo[1,2-a]pyrazin-9(6H)-one] |  |  | < 4.52 | < 4.52 | < 4.52 |
| N#Cc1ccc(-c2c3n(c4cccnc24)CCN(C2CC2)C3=O)cc1 [Example 43, 4-(8-Cyclopropyl-9-oxo-6,7,8,9-tetrahydropyrido[2′,3′:4,5]pyrrolo[1,2-a]pyrazin-10-yl)benzonitrile] | 5.83 | 7.58 |  |  |  |
| O=C1c2c(-c3ccc(Cl)cc3)c3ncccc3n2C[C@@H]2CCCN12 [Example 52, (6aS)-12-(4-Chlorophenyl)-6a,7,8,9-tetrahydro-6H,11H-pyrido[2′,3′:4,5]pyrrolo[1,2-a]pyrrolo[1,2-d]pyrazin-11-one] | 5.95 | 7.91 |  |  |  |
| COc1ccc(-c2c3n(c4cccnc24)CCN(C2CC2)C3=O)cn1 [Example 53, 8-Cyclopropyl-10-(6-methoxypyridin-3-yl)-7,8-dihydropyrido[2′,3′:4,5]pyrrolo[1,2-a]pyrazin-9(6H)-one] | 6.37 | 8.18 |  |  |  |
| CC(=O)N1CCn2c(c(-c3ccc(Cl)cc3)c3ncccc32)C1=O [Example 78, 8-Acetyl-10-(4-chlorophenyl)-7,8-dihydropyrido[2′,3′:4,5]pyrrolo[1,2-a]pyrazin-9(6H)-one] |  |  |  | 7.51 | 7.23 |
| COc1cc(-c2c3n(c4cccnc24)CCN(C2CC2)C3=O)c(F)cc1Cl [Example 15, 10-(4-Chloro-2-fluoro-5-methoxyphenyl)-8-cyclopropyl-7,8-dihydropyrido[2′,3′: 4,5]pyrrolo[1,2-a]pyrazin-9(6H)-one] | 6.35 | 8.16 |  |  |  |
| O=c1c2c(-c3ccc(Cl)cc3)c3ncccc3n2ccn1-c1nnc[nH]1 [Example 6, 10-(4-Chlorophenyl)-8-(4H-1,2,4-triazol-3-yl)pyrido[2′,3′:4,5]pyrrolo[1,2-a]pyrazin-9(8H)-one] | 5.57 | 8.08 |  |  |  |
| COc1ncc(-c2c3n(c4nccnc24)CCN(C2CC2)C3=O)cn1 [Example 87, 8-Cyclopropyl-10-(2-methoxypyrimidin-5-yl)-7,8-dihydropyrrolo[1,2-a:4,5-b′]dipyrazin-9(6H)-one] |  |  |  | < 4.54 | 5.58 |
| COc1ncc(-c2c3n(c4cncnc24)CCN(C2CC2)C3=O)cn1 [Example 89, 8-Cyclopropyl-10-(2-methoxypyrimidin-5-yl)-7,8-dihydropyrazino[1′,2′:1,5]pyrrolo[3,2-d]pyrimidin-9(6H)-one] |  |  |  | < 4.52 | 5.53 |
| CCN1CCn2c(c(-c3ccc(Cl)cc3)c3ncccc32)C1=O [Example 31, 10-(4-Chlorophenyl)-8-ethyl-7,8-dihydropyrido[2′,3′:4,5]pyrrolo[1,2-a]pyrazin-9(6H)-one] | 7.06 | 8.61 |  |  |  |
| O=C1NCCn2c1c(-c1ccc(Cl)cc1)c1ncccc12 [Example 19, 10-(4-Chlorophenyl)-7,8-dihydropyrido[2′,3′:4,5]pyrrolo[1,2-a]pyrazin-9(6H)-one] | 5.80 | 7.73 |  |  |  |
| CN1CCn2c(c(-c3ccc(Cl)cc3)c3ncccc32)C1=O [Example 30, 10-(4-Chlorophenyl)-8-methyl-7,8-dihydropyrido[2′,3′:4,5]pyrrolo[1,2-a]pyrazin-9(6H)-one] | 6.10 | 7.55 |  |  |  |
| CCCN1CCn2c(c(-c3ccc(Cl)cc3)c3ncccc32)C1=O [Example 17, 10-(4-Chlorophenyl)-8-propyl-7,8-dihydropyrido[2′,3′:4,5]pyrrolo[1,2-a]pyrazin-9(6H)-one] | 7.09 | 9.00 |  |  |  |
| O=C1c2c(-c3ccc(Cl)cc3)c3ncccc3n2CCN1c1nnc[nH]1 [Example 5, 10-(4-Chlorophenyl)-8-(4H-1,2,4-triazol-3-yl)-7,8-dihydropyrido[2′,3′:4,5]pyrrolo[1,2-a]pyrazin-9(6H)-one] | 6.32 | 8.23 |  |  |  |
| O=C1c2c(-c3ccc(F)cn3)c3ncccc3n2CCN1C1CC1 [Example 62, 8-Cyclopropyl-10-(5-fluoropyridin-2-yl)-7,8-dihydropyrido[2′,3′:4,5]pyrrolo[1,2-a]pyrazin-9(6H)-one] | < 4.52 | 6.48 |  |  |  |
| O=C1c2c(-c3ccsc3)c3ncccc3n2CCN1C1CC1 [Example 39, 8-Cyclopropyl-10-(thiophen-3-yl)-7,8-dihydropyrido[2′,3′:4,5]pyrrolo[1,2-a]pyrazin-9(6H)-one] | 5.76 | 7.10 |  |  |  |
| O=C1c2c(-c3ccc(Cl)cc3)c3ncccc3n2C[C@H]2CCCN12 [Example 3, (6aR)-12-(4-Chlorophenyl)-6a, 7,8,9-tetrahydro-6H,11H-pyrido[2′,3′:4,5]pyrrolo[1,2-a]pyrrolo[1,2-d]pyrazin-11-one, trifluoroacetate salt] | 6.82 | 8.86 |  |  |  |
| O=C1c2c(-n3cccn3)c3ncccc3n2CCN1C1CC1 [Example 92, 8-Cyclopropyl-10-(1H-pyrazol-1-yl)-7,8-dihydropyrido[2′,3′:4,5]pyrrolo[1,2-a]pyrazin-9(6H)-one] |  |  |  | < 4.52 | 4.82 |
| O=C1c2c(-c3ccc(Cl)cc3)c3ncccc3n2CC2CCN12 (stereo not shown) [Example 67, 11-(4-Chlorophenyl)-6,6a,7,8-tetrahydro-10H-azeto[1,2-a]pyrido[2′,3′:4,5]pyrrolo[1,2-d]pyrazin-10-one] | 6.06 | 8.31 |  |  |  |
| Cc1ccc(-c2c3n(c4nccnc24)CCN(C2CC2)C3=O)cn1 [Example 83, 8-Cyclopropyl-10-(6-methylpyridin-3-yl)-7,8-dihydropyrrolo[1,2-a:4,5-b′]dipyrazin-9(6H)-one] |  |  |  | < 4.53 | 4.81 |
